Several values for one entry are separate records, joined by “and”; a condition that tells them apart may be missing. Equal entries are not always repeated. Entries after “also recorded” stand apart in the source; their conditions may differ.

In general, Km refers to the concentration of substrate that gives half-maximal velocity.

One test has as its target T1, human PARLΔ55 (Homo sapiens, UniProt Q9H300).
T1 construct: to generate full-length (FL) starting at residue 55 or the β-cleavage form truncated at residue 77; GFP-hexahistidine (behind a TEV cleavage site) (C, cleaved yes); made in house; host or cells: Pichia pastoris
T1 sequence (Q9H300 56-379): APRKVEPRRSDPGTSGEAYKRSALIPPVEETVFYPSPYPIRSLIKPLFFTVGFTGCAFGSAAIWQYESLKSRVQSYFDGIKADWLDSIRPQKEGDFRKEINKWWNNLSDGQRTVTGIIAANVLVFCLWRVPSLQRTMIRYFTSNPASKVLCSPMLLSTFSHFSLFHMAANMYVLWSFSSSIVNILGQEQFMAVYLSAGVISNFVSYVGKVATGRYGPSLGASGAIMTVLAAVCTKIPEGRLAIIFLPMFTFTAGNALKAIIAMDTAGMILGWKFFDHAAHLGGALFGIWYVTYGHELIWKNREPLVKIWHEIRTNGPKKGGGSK
The experiment in a line: IQ-peptide substrate cleavage kinetics, full-length PARLΔ55 in detergent. Format: biochemical. To be noted: for Km / kcat (turnover rate) / kcat/KM (catalytic efficiency): PARLΔ55 0.8 μM in 0.1% DDM with CL, 50 mM Tris-HCl pH 7.0, 150 mM NaCl, 10% glycerol, 5% DMSO, 37 °C, fluorescence, mean ± SEM. An excerpt:
To further evaluate the cleavage of other known substrates of PARL, we adopted a more facile system to examine cleavage of multiple substrates and generated internally quenched (IQ) peptide substrates ([25], [36], [37], [38]) based on the amino acids flanking the PARL cleavage sites of PINK1 ([39]), PGAM5 ([8]), and Smac/Diablo ([11]). […] The assay allowed us to determine the catalytic parameters for the three primary PARL substrates and examine the substrate specificity (Fig. 2, Tables S2–S4).
(§1) Assays with FRET-PINK1^70–134 were conducted as previously described ([26]). For EDANS/Dabcyl 10-mer IQ peptides (PINK1, PGAM5, Smac/Diablo), lyophilized peptides were initially dissolved in DMSO to obtain a stock solution. The IQ peptide substrates in a concentration range of 0.1–70 μM were incubated with activity assay buffer (50 mM Tris-HCl pH 7.0, 150 mM NaCl, 10% glycerol, 0.1% DDM) in a 384-well black-bottomed plate at 37 °C for 30 min in a multiwell plate reader (SynergyMx, BioTek). For all concentrations of IQ peptide, the DMSO was kept constant at 5%. Following preincubation, PARL was added to a final concentration of 0.8 μM to initiate the cleavage reaction. Fluorescence readings were taken every 3 min over a 3 h time course at ƛex = 336 nm and ƛem = 490 nm. The initial velocity was determined from the fluorescence readings over the time course. For each substrate concentration, a no-enzyme control was subtracted to eliminate background fluorescence changes not related to substrate cleavage. Relative fluorescence units were converted to concentration (μM) by determining the maximum change in fluorescence observed for each substrate concentration when fully digested. GraphPad Prism software was used for Michaelis–Menten analysis of kinetic curves. All kinetic data were obtained using at least three biological replicates (different enzyme preparations) with technical duplicates for each experiment. For kinetic measurements in detergent with all three substrates, the activity assays were repeated at least five times. In addition, after each protease purification, the quality control of purified PARL was controlled by measuring its enzymatic activity. Minimum of three experimental replicates with two technical replicates were used for data analysis.

A further test deals with T2, PARLΔ77 (Homo sapiens, UniProt Q9H300).
T2 construct: GFP-hexahistidine (behind a TEV cleavage site) (C, cleaved yes); made in house; host or cells: Pichia pastoris
T2 sequence (Q9H300 78-379): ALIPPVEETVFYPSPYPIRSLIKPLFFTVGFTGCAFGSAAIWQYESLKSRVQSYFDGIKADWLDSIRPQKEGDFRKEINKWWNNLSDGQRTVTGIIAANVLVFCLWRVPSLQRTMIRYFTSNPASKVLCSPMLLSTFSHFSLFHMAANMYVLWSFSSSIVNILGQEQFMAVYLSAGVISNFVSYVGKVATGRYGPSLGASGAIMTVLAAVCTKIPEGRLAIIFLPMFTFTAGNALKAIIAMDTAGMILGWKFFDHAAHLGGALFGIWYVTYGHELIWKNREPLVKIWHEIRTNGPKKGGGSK
The experiment in a line: IQ-peptide substrate cleavage kinetics, PARLΔ77 in proteoliposomes. Particulars: for ranking of substrate cleavage: in proteoliposomes, by kcat, KM or kcat/KM. In kind it is biochemical.
Source text: To assess the activity of recombinant PARL toward known substrates in a lipid bilayer, full-length and β-truncated PARL were reconstituted in proteoliposomes (PLs) using Escherichia coli lipids that closely resemble the composition of the IMM ([31]). We determined that the EDANS/Dabcyl - FRET tags prevented incorporation of the substrates into PL; however, the substrate could still be cleaved since the active site is proposed to be near the lipid/water interface ([40], [41]) analogous to bacterial rhomboid proteases (Fig. 1). To calculate the specific activity of the protease, we quantified the fraction of PARL in the PLs with an outward facing active site using a membrane […] activity-based TAMRA-labeled fluorophosphonate probe ([42]). […] These values were used to calculate specific activity of the PARL protease. Next, we compared cleavage of three IQ-peptide substrates by reconstituted full-length mature PARLΔ55 and the β-truncated form, PARLΔ77 (Fig. 3, Tables S5 and S6).
as §1
E. coli polar lipids (Avanti), 400 μg in chloroform, were dried under nitrogen stream in a glass tube to yield a thin film of lipid. The tube was incubated overnight in a desiccator to completely remove all traces of solvent. In total, 50 μl of water and DDM detergent was added to the lipid film for resuspension at room temperature for 10 min, followed by the addition of purified PARL (400 μg) in 50 mM Tris-HCl, pH 8.0, 150 mM NaCl, 20% glycerol, 0.1% DDM, to yield the final weight ratio of 1 PARL:1 lipid:2 detergent. The detergent was slowly removed by the addition of SM2 Biobeads (Bio-Rad) while stirring on ice for 6 h to allow for the generation of proteoliposomes (PL); the process was controlled by the regimen of Biobead addition. To purify the PL, 50%:20% sucrose density gradient ultracentrifugation was used. A TAMRA probe (ThermoFisher) was used to determine the orientation of reconstituted PARL, which specifically and covalently labels serine residues of an enzymatically active serine protease. In total, 2 μM of TAMRA probe was added to PL samples and incubated for 1 h, allowing the TAMRA probe to label only the outward-facing accessible active sites. […]

As for “(DABCYL)-AVFLAFGLGL-Glu(EDANS) [IQ-PINK1^99–108, internally quenched DABCYL/EDANS peptide substrate based on PINK1 PARL cleavage site]”, at human PARLΔ55, the “substrate turnover with PARLΔ55 compared with PARLΔ77” value is reported as “significantly lower substrate turnover”, the Km turned out to be 1900 ± 400 nM, the “kcat (turnover rate)” value was determined as 0.42 ± 0.03 h⁻¹ and the “kcat/KM (catalytic efficiency)” value was determined as 0.22 ± 0.08 µM⁻¹ h⁻¹.
In the case of “(DABCYL)-AVFLSAVAVG-Glu(EDANS) [IQ-PGAM5^20–29, internally quenched DABCYL/EDANS peptide substrate based on PGAM5 PARL cleavage site]”, on human PARLΔ55, the “substrate turnover with PARLΔ55 compared with PARLΔ77” value is “significantly lower substrate turnover”, the Michaelis constant (Km) worked out at 470 ± 70 nM, the “kcat (turnover rate)” value was 0.46 ± 0.02 h⁻¹ and the “kcat/KM (catalytic efficiency)” value stood at 1.0 ± 0.3 µM⁻¹ h⁻¹. Besides, the “ranking of substrate cleavage” value on PARLΔ77 was “the preferred substrate with the lowest KM and the highest catalytic efficiency; also recorded: cleaved with the highest efficiency”.
With “(DABCYL)-GVT LCAVPIA-Glu(EDANS) [IQ-Smac/Diablo^51–60, internally quenched DABCYL/EDANS peptide substrate based on Smac/Diablo PARL cleavage site]”, on human PARLΔ55, the Km turned out to be 6000 ± 1000 nM, the “kcat (turnover rate)” value came to 1.3 ± 0.1 h⁻¹ and the “kcat/KM (catalytic efficiency)” value worked out at 0.3 ± 0.1 µM⁻¹ h⁻¹. Also, at PARLΔ77 (PARLΔ77 in proteoliposomes), the turnover rate is 1.0 ± 0.1 min⁻¹ and 1 min⁻¹. For the same substance, the “ranking of substrate cleavage” value at PARLΔ77 is “the fastest”.

The values are drawn from PMC7966987, “Insights into the catalytic properties of the mitochondrial rhomboid protease PARL” (The Journal of Biological Chemistry, 2021).
